Experimental data taken from article doi:10.1101/2025.04.10.648175v1 (biorxiv, 2025).

How the values were obtained:
AzoTag1 = assay: isothermal titration calorimetry; assay type: binding; settings: 20 mM HEPES-NaOH, 150 mM NaCl, pH 7.5, 25 °C, 0.5% DMSO; one-site model
AzoTag16 = assay: isothermal titration calorimetry; assay type: binding; settings: 20 mM HEPES-NaOH, 150 mM NaCl, pH 7.5, 25 °C, 0.8% DMSO; one-site model

Kd (AzoTag1) [nM]	Kd (AzoTag16) [nM]	Compound
805 ± 22.6		CCNC(=O)c1cc(F)c(/N=N\c2c(F)cc(C(=O)NCCOCCOCC(=O)NC)cc2F)c(F)c1 [compound 1, cis-Et-FAzo]
	14.03 ± 0.02	CNC(=O)COCCOCCNC(=O)c1cc(F)c(/N=N\c2c(F)cc(C(=O)NCCC(=O)O)cc2F)c(F)c1 [compound 2, cis-Ca-FAzo]
